Experimental data as given in US20080219972A1, “Prostatic Acid Phosphatase (Pap) Materials and Methods of Use Thereof in the Prophylactic and Therapeutic Treatment of Prostate Cancer” (UNIVERSITY OF MARYLAND, BALTIMORE, priority 2005, published 2008).

Tested on: CD4 T-cells from PBMC of HLA-DRB1*1501-positive GP patients and normal male donors
Assay: Human CD4 T-cell line responses to PAP polypeptides (IFN-γ ELISPOT, proliferation assay, IFN-γ ELISA)
Assay type: cell-based
Protocol: The PAP polypeptides identified above were tested in human cultures. CD4 T-cell lines, which were specific for polypeptide 15 or polypeptide 19, were established from PBMC of HLA-DRB1*1501-positive GP patients and normal male donors by repeated stimulations with the polypeptide 19. After two rounds of in vitro stimulation, T-cells were plated at 2×10^4 cells/well in 96-well, round-bottomed plates, and stimulated by irradiated autologous PBMC in the presence/absence of polypeptide 19 or control polypeptide 15.
No polypeptide-specific responses were detected in primary PBMC cultures by IFN-γ ELISPOT, proliferation assay, or IFN-γ ELISA. When CD4 T-cells were stimulated with polypeptide […], cells from three of five GP patients and three of four normal male donors responded to the specific peptide in secondary cultures.
The HLA restriction of the cell line was confirmed using an immortalized B-cell line derived from a patient with type II Bare Lymphocyte Syndrome (BLC cells) and engineered to express HLA-DRB1*1501.
A CD4 T-cell line, which was developed from patient Pr131 by repeated stimulation with polypeptide 19, recognized human and mouse homolog polypeptides.

## ESEEFLKRLHPYKSFLD TLS (ESEEFLKRLHPYKSFLDTLS; listed as Mus musculus) [mouse homolog, mouse polypeptide corresponding to human polypeptide 19, six amino acid substitutions]
Inferred from concentration range of response
  avidity relative to human polypeptide 19: higher avidity
Line developed by repeated stimulation with polypeptide 19
  recognition by Pr131 CD4 T-cell line raised with polypeptide 19: recognized
Seen in a broader range of concentration
  response of Pr131 CD4 T-cell line stimulated with irradiated autologous PBMC: strong response
